# What was measured:
# Assay type in all cases: in vivo
# [1] = system: barnyardgrass (Echinochloa crus-galli L.); assay: Test Example 1: foliar treatment, upland pot test, barnyardgrass; conditions: Echinochloa crus-galli, read-out: Growth inhibition rate (%) Barnyardgrass
# [2] = system: crabgrass (Digitaria sanguinalis L.); assay: Test Example 1: foliar treatment, upland pot test, crabgrass; conditions: Digitaria sanguinalis, read-out: Growth inhibition rate (%) Crabgrass
# [3] = system: green foxtail (Setaria viridis L.); assay: Test Example 1: foliar treatment, upland pot test, green foxtail; conditions: Setaria viridis, read-out: Growth inhibition rate (%) Green foxtail
# [4] = system: redroot pigweed (Amaranthus retroflexus L.); assay: Test Example 1: foliar treatment, upland pot test, redroot pigweed; conditions: Amaranthus retroflexus, read-out: Growth inhibition rate (%) Redroot pigweed
# Summary of the method: (§1)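 Upland soil pots, sown; foliar spray at pigweed cotyledon–2.0 leaf, velvetleaf 0.1–1.5 leaf, rice 1.0–3.0 leaf, wheat 1.7–3.4 leaf. WP/EC formulations, prescribed a.i. rate, 500 L/ha spray volume + 0.1 vol % spreader. Visual % inhibition, d17–25.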
# [5] = system: prickly sida (Sida spinosa L.); assay: Test Example 1: foliar treatment, upland pot test, prickly sida; conditions: Sida spinosa, read-out: Growth inhibition rate (%) Prickly sida
# [6] = system: velvetleaf (Abutilon theophrasti MEDIC.); assay: Test Example 1: foliar treatment, upland pot test, velvetleaf; conditions: Abutilon theophrasti, read-out: Growth inhibition rate (%) Velvetleaf
# Summary of the method: as §1
# rice (Oryza sativa L.) [7] = assay: Test Example 1: foliar treatment, upland pot test, rice; conditions: Oryza sativa, read-out: Growth inhibition rate (%) Rice
# Summary of the method: as §1
# wheat (Triticum spp.) [8] = assay: Test Example 1: foliar treatment, upland pot test, wheat; conditions: Triticum, read-out: Growth inhibition rate (%) Wheat
# Summary of the method: as §1
# corn (Zea mays L.) [9] = assay: Test Example 1: foliar treatment, upland pot test, corn; conditions: Zea mays, read-out: Growth inhibition rate (%) Corn
# [10] = system: soybean (Glycine max Merr.); assay: Test Example 1: foliar treatment, upland pot test, soybean; conditions: Glycine max, read-out: Growth inhibition rate (%) Soybean
# [11] = system: barnyardgrass (Echinochloa crus-galli L.); assay: Test Example 2: soil application on the day after sowing, barnyardgrass; conditions: Echinochloa crus-galli, 250 g/ha active ingredient, observed 19th to 28th day after application, read-out: Growth inhibition rate (%) Barnyardgrass
# Summary of the method: (§2)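 Seeds sown in upland field soil in 1/170,000 ha pots; next day, wettable powder or emulsifiable concentrate formulations were diluted in water at 500 L/ha and sprayed onto the soil. Growth was scored visually 19–28 days after application as growth inhibition (0% = untreated, 100% = complete kill).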
# [12] = system: crabgrass (Digitaria sanquinalis L.); assay: Test Example 2: soil application on the day after sowing, crabgrass; conditions: Digitaria, 250 g/ha active ingredient, observed 19th to 28th day after application, read-out: Growth inhibition rate (%) Crabgrass
# Summary of the method: as §2
# [13] = system: green foxtail (Setaria viridis L.); assay: Test Example 2: soil application on the day after sowing, green foxtail; conditions: Setaria viridis, 250 g/ha active ingredient, observed 19th to 28th day after application, read-out: Growth inhibition rate (%) Green foxtail
# Summary of the method: as §2
# [14] = system: redroot pigweed (Amaranthus retroflexus L.); assay: Test Example 2: soil application on the day after sowing, redroot pigweed; conditions: Amaranthus retroflexus, 250 g/ha active ingredient, observed 19th to 28th day after application, read-out: Growth inhibition rate (%) Redroot pigweed
# Summary of the method: as §2
# [15] = system: prickly sida (Sida spinosa L.); assay: Test Example 2: soil application on the day after sowing, prickly sida; conditions: Sida spinosa, 250 g/ha active ingredient, observed 19th to 28th day after application, read-out: Growth inhibition rate (%) Prickly sida
# Summary of the method: as §2
# [16] = system: velvetleaf (Abutilon theophrasti MEDIC.); assay: Test Example 2: soil application on the day after sowing, velvetleaf; conditions: Abutilon theophrasti, 250 g/ha active ingredient, observed 19th to 28th day after application, read-out: Growth inhibition rate (%) Velvetleaf
# Summary of the method: as §2
# rice (Oryza sativa L.) [17] = assay: Test Example 2: soil application on the day after sowing, rice; conditions: Oryza sativa, 250 g/ha active ingredient, observed 19th to 28th day after application, read-out: Growth inhibition rate (%) Rice
# Summary of the method: as §2
# wheat (Triticum spp.) [18] = assay: Test Example 2: soil application on the day after sowing, wheat; conditions: Triticum, 250 g/ha active ingredient, observed 19th to 28th day after application, read-out: Growth inhibition rate (%) Wheat
# From the text: Upland field soil was put into a 1/170,000 hectare pot, and seeds of various plants barnyardgrass (Echinochloa crus-galli L.), crabgrass (Digitaria sanquinalis L.), green foxtail (Setaria viridis L.), redroot pigweed (Amaranthus retroflexus L.), prickly sida (Sida spinosa L.), velvetleaf (Abutilon theophrasti MEDIC.), rice (Oryza sativa L.), wheat (Triticum spp.), corn (Zea mays L.) and soybean (Glycine max Merr.)) were sown. On the day after sowing, wettable powders or emulsifiable concentrates of the compounds of the above formula (I) prepared in accordance with a conventional preparation method, were weighed so that the active ingredients became the prescribed amounts, and diluted with water in an amount corresponding to 500 liter per 1 hectare, followed by soil application with a small sprayer.
# On the 19th to 28th day after the application, the state of growth of the respective plants was visually observed, and the herbicidal effect was evaluated by a growth inhibition rate (%) of from 0 (equivalent to the non-treated area) to 100% (complete kill).
# corn (Zea mays L.) [19] = assay: Test Example 2: soil application on the day after sowing, corn; conditions: Zea mays, 250 g/ha active ingredient, observed 19th to 28th day after application, read-out: Growth inhibition rate (%) Corn
# Summary of the method: as §2
# [20] = system: soybean (Glycine max Merr.); assay: Test Example 2: soil application on the day after sowing, soybean; conditions: Glycine max, 250 g/ha active ingredient, observed 19th to 28th day after application, read-out: Growth inhibition rate (%) Soybean
# Summary of the method: as §2
# [21] = 31 g/ha active ingredient, observed 17th to 25th day after application
# [22] = 63 g/ha active ingredient, observed 21st day after application
Compound,inhibition at 250 g/ha [11] [%],inhibition at 250 g/ha [12] [%],inhibition at 250 g/ha [13] [%],inhibition at 250 g/ha [14] [%],inhibition at 250 g/ha [15] [%],inhibition at 250 g/ha [16] [%],inhibition at 250 g/ha (rice (Oryza sativa L.) [17]) [%],inhibition at 250 g/ha (wheat (Triticum spp.) [18]) [%],inhibition at 250 g/ha (corn (Zea mays L.) [19]) [%],inhibition at 250 g/ha [20] [%],also measured
Cn1ncc(C(=O)c2ccc(S(C)(=O)=O)c(Cl)c2Cl)c1O [compound 238],0,20,20,30,0,0,0,0,0,0,"inhibition at 31 g/ha [1, 21]: 0%; inhibition at 31 g/ha [2, 21]: 0%; inhibition at 31 g/ha [3, 21]: 0%; inhibition at 31 g/ha [4, 21]: 50%; inhibition at 31 g/ha [5, 21]: 0%; inhibition at 31 g/ha [6, 21]: 30%; inhibition at 31 g/ha (rice (Oryza sativa L.) [7]; [21]): 0%; inhibition at 31 g/ha (wheat (Triticum spp.) [8]; [21]): 0%; inhibition at 31 g/ha (corn (Zea mays L.) [9]; [21]): 0%; inhibition at 31 g/ha [10, 21]: 50%"
CCn1ncc(C(=O)c2ccc(S(C)(=O)=O)c(OCCC3OCCO3)c2Cl)c1O [compound 244],100,90,70,90,60,80,80,0,0,0,"inhibition at 63 g/ha [1, 22]: 50%; inhibition at 63 g/ha [2, 22]: 20%; inhibition at 63 g/ha [3, 22]: 40%; inhibition at 63 g/ha [4, 22]: 80%; inhibition at 63 g/ha [5, 22]: 50%; inhibition at 63 g/ha [6, 22]: 70%; inhibition at 63 g/ha (rice (Oryza sativa L.) [7]; [22]): 10%; inhibition at 63 g/ha (wheat (Triticum spp.) [8]; [22]): 0%; inhibition at 63 g/ha (corn (Zea mays L.) [9]; [22]): 0%; inhibition at 63 g/ha [10, 22]: 70%"

# Reference: patent publication US20100317528A1, “HERBICIDE CONTAINING BENZOYLPYRAZOLE COMPOUND” (ISHIHARA SANGYO KAISHA, LTD., priority 2006, published 2010)
